US8518980B2, “Treatment of Duchenne muscular dystrophy” (Summit Corporation PLC, priority 2006, dated 2013)

Test system: Utrophin A promoter linked to a luciferase reporter gene (H2K/mdx/Utro A reporter cell line)
Test: Luciferase reporter assay (murine H2K cells)
Conditions: Mus musculus, H2K mdx

Compared with `Nc1ccc2oc(-c3cccc4ccccc34)nc2c1` [Example 577, 2-(naphthalen-1-yl)benzo[d]oxazol-5-amine], `Nc1ccc(-c2nc3ccccc3o2)c(O)c1` [Example 484, 5-amino-2-(benzo[d]oxazol-2-yl)phenol] is higher in activity at 10 µM: less than 200% for the first, 201 to 300% for the second.

`CNS(=O)(=O)c1ccc2nc(NC(=O)c3cccs3)sc2c1` [Example 687, N-(6-(N-methylsulfamoyl)benzo[d]thiazol-2-yl)thiophene-2-carboxamide] and `Cc1ccc2oc(-c3cccs3)nc2c1` [Example 612, 5-Methyl-2-(thiophen-2-yl)benzo[d]oxazole] fall in the same range of activity at 10 µM: 201 to 300% for the first, 201 to 300% for the second.

`Cc1c(N)cccc1-c1nc2cc(Cl)ccc2o1` [Example 566, 3-(5-chlorobenzo[d]oxazol-2-yl)-2-methylaniline] and `CCc1ccc2oc(-c3cc(N)ccc3O)nc2c1` [Example 551, 4-amino-2-(5-ethylbenzo[d]oxazol-2-yl)phenol] cannot be ordered by activity at 10 µM: less than 200% for the first, less than 200% for the second.

Compared with `COc1ccc2oc(-c3cccc(N)c3)nc2c1` [Example 630, 3-(5-methoxybenzo[d]oxazol-2-yl)aniline], `CCC(=O)Nc1ccc2oc(-c3cccc(C)c3)nc2c1` [Example 668, N-(2-m-tolylbenzo[d]oxazol-5-yl)propionamide] is lower in activity at 10 µM: greater than 401% for the first, 201 to 300% for the second.

First: Cn1c(-c2ccc([N+](=O)[O-])cc2)nc2ccccc21 [Example 472, 1-methyl-2-(4-nitrophenyl)-1H-benzo[d]imidazole]
Second: Cc1ccc(-c2nc3ccccc3n2C)cc1 [Example 588, 1-Methyl-2-p-tolyl-1H-benzo[d]imidazole]
The activity at 10 µM of the first is lower: less than 200% for the first, 301 to 400% for the second.

`Cc1ccc2nc(-c3cccc(NC(=O)c4ccco4)c3)[nH]c2c1` [Example 538, N-(3-(6-methyl-1H-benzo[d]imidazol-2-yl)phenyl)furan-2-carboxamide] and `O=C(Nc1ccc(-c2nc3ccccc3[nH]2)cc1)c1ccc2c(c1)OCO2` [Example 540, N-(4-(1H-benzo[d]imidazol-2-yl)phenyl)benzo[d][1,3]dioxole-5-carboxamide] cannot be ordered by activity at 10 µM: less than 200% for the first, less than 200% for the second.

`O=C(Nc1ccc(-c2nc3ccccc3[nH]2)cc1)C1CCCO1` (centres unmarked) [Example 587, N-(4-(1H-Benzo[d]imidazol-2-yl)phenyl)tetrahydrofuran-2-carboxamide] and `O=C(Nc1ccc(-c2nc3ccccc3s2)cc1)C1CC1` [Example 661, N-(4-(benzo[d]thiazol-2-yl)phenyl)cyclopropanecarboxamide] fall in the same range of activity at 10 µM: 301 to 400% for the first, 301 to 400% for the second.

First: O=C(Nc1ccc(-c2nc3ncccc3o2)cc1)c1ccccc1Cl [Example 641, 2-chloro-N-(4-(oxazolo[4,5-b]pyridin-2-yl)phenyl)benzamide]
Second: Cc1ccc2sc(-c3ccc(NC(=O)c4cc(-n5cnnc5)ccc4Cl)cc3)nc2c1 [Example 688, 2-chloro-N-(4-(5-methylbenzo[d]thiazol-2-yl)phenyl)-5-(4H-1,2,4-triazol-4-yl)benzamide]
The activity at 10 µM of the first is higher: 301 to 400% for the first, 201 to 300% for the second.

`Nc1ccc(-c2nc3ccccc3s2)cc1` [Example 601, 4-(Benzo[d]thiazol-2-yl)aniline] and `Nc1cccc(-c2nc3ccccc3s2)c1` [Example 602, 3-(Benzo[d]thiazol-2-yl)aniline] fall in the same range of activity at 10 µM: 301 to 400% for the first, 301 to 400% for the second.

First: CCOc1ccc(NCc2nc3ccccc3n2C)cc1 [Example 676, 4-ethoxy-N-((1-methyl-1H-benzo[d]imidazol-2-yl)methyl)aniline]
Second: Clc1cccc(-c2nc3ccccc3[nH]2)c1 [Example 514, 2-(3-chlorophenyl)-1H-benzo[d]imidazole]
The activity at 10 µM of the first is higher: 201 to 300% for the first, less than 200% for the second.

First: Cc1cc(C)c2nc(-c3ccc(N)cc3)oc2c1 [Example 590, 4-(4,6-Dimethylbenzo[d]oxazol-2-yl)aniline]
Second: Cc1ccc2[nH]c(-c3ccccc3N)nc2c1 [Example 554, 2-(5-methyl-1H-benzo[d]imidazol-2-yl)aniline]
The activity at 10 µM of the first is higher: greater than 401% for the first, 301 to 400% for the second.

`O=C(Nc1nc2ccccc2[nH]1)c1cccc(Cl)c1` [Example 679, N-(1H-benzo[d]imidazol-2-yl)-3-chlorobenzamide] showed an activity at 10 µM of 201 to 300%.
